Measured values taken from the NIST ThermoML archive (doi:10.1021/acs.jced.7b00999).
± gives the expanded uncertainty stated by the source. Each block holds one compound with its values, some of them ahead of it.

Conditions: Liquid, Ebulliometric method (Recirculating still)

- vapor or sublimation pressure (385.15 K): 101.3 ± 1 kPa
Compound: CCC(C)OC(C)=O (stereo not drawn) [1-methylpropyl ethanoate]

- vapor or sublimation pressure (371.58 K): 100 ± 1 kPa
Compound: CCCCCCC [heptane]

- vapor or sublimation pressure (374.08 K): 101.3 ± 1 kPa
Compound: CC1CCCCC1 [methylcyclohexane]
